Read-outs that look alike come from different tables or passages of the source.
Key:
[1] = test system: SKOV-3; assay: SRB colorimetric cell growth inhibition assay, SKOV-3; format: cell-based; conditions: Homo sapiens; for GI50: SK-OV-3, SKOV-3, GI=growth inhibition, read-out: GI50 SKOV-3; for LC50 (concentration causing 50% net cell killing) / IC (TGI): SK-OV-3, SKOV-3; for LC50 (concentration causing 50% net cell killing): cell killing (cytotoxic effect), read-out: LC50 SKOV-3; for IC (TGI): total growth inhibition (cytostatic effect), read-out: TGI SKOV-3
How it was run: (§1)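 Growth inhibition (GI), total growth inhibition (TGI, cytostatic) and lethal concentration (LC, cytotoxic) come from an SRB-based colorimetric measure of growth and viability. Data are triplicate-well means ± SD.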

[2] = test system: H-MEC-1; assay: SRB colorimetric cell growth inhibition assay, H-MEC-1; format: cell-based; conditions: Homo sapiens, HMEC-1, H-MEC-1; for GI50: GI=growth inhibition, read-out: GI50 H-MEC-1; for IC (TGI): total growth inhibition (cytostatic effect), read-out: TGI H-MEC-1
How it was run: as §1

[3] = as above; format: cell-based; conditions: human, H-MEC-1, cell killing (cytotoxic effect), read-out: LC50 H-MEC-1
How it was run: as §1

[4] = molecular target: T1, human topoisomerase I (Homo sapiens, UniProt P11387); assay: Topoisomerase I cleavage of radiolabeled 117-bp DNA fragment; format: biochemical; conditions: 117-bp DNA restriction fragment 3' end-labeled; for topoisomerase I-mediated DNA cleavage sites / cleavage profile: sequencing-type polyacrylamide gels
T1 sequence (P11387 1-765): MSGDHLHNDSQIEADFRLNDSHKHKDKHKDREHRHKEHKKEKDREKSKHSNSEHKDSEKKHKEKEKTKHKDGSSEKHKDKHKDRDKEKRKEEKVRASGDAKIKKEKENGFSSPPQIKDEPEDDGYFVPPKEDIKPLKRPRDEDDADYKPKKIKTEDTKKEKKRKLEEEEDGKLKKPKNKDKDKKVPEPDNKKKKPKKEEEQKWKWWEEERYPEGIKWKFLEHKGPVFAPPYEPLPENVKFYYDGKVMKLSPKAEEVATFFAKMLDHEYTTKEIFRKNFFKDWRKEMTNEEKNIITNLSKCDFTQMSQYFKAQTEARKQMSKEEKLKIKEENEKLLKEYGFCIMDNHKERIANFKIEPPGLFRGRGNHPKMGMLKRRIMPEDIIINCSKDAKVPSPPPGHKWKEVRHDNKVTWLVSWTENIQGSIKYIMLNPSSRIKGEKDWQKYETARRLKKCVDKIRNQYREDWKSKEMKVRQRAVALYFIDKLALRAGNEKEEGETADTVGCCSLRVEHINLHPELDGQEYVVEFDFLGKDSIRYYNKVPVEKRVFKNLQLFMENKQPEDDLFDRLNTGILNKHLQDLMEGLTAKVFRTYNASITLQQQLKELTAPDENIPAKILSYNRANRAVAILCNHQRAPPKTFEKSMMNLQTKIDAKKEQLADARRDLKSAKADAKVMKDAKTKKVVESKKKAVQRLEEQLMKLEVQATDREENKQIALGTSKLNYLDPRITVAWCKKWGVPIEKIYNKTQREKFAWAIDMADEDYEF
Excerpt: Two assays, based on DNA relaxation and DNA cleavage (Bailly, C. DNA relaxation and cleavage assays to study topoisomerase I inhibitors. Methods Enzymol. 2001, 340, 610-623) were used evaluate the effects of the lamellarin analogs on the catalytic activity of human topoisomerase I.
A second assay, based on the cleavage of a radiolabeled DNA substrate by topoisomerase I, was used to confirm that the cationic lamellarin derivatives do effectively function as topoisomerase I poisons. A 117-bp DNA restriction fragment uniquely end-labeled at the 3′ end was subjected to cleavage by topoisomerase I in the presence of the different compounds and the resulting DNA cleavage products were resolved on sequencing-type polyacrylamide gels. The advantage of this assay is to detect the cleavage sites and to locate their positions with nucleotide resolution, providing thus information on the site selectivity of cleavage.

[5] = SRB colorimetric cell growth inhibition assay, H-MEC-1; format: cell-based; conditions: human, H-MEC-1, LC=cell killing (cytotoxic effect), read-out: LC50 H-MEC-1
How it was run: (§2)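 Growth and viability quantified by sulforhodamine B staining in 96-well microplates. Triplicate wells give mean ± SD; derived endpoints are GI, TGI (cytostatic) and LC (cytotoxic).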

[6] = test system: SKOV-3; assay: SRB colorimetric cell growth inhibition assay, SKOV-3; format: cell-based; conditions: Homo sapiens; for GI50: SK-OV-3, SKOV-3, GI=growth inhibition, read-out: GI50 SKOV-3; for IC (TGI): TGI=total growth inhibition (cytostatic effect), read-out: TGI SKOV-3
How it was run: as §2

[7] = test system: H-MEC-1; assay: SRB colorimetric cell growth inhibition assay, H-MEC-1; format: cell-based; conditions: Homo sapiens, HMEC-1, H-MEC-1; for GI50: GI=growth inhibition; for IC (TGI): TGI=total growth inhibition (cytostatic effect), read-out: TGI H-MEC-1
How it was run: as §2

[8] = test system: HeLa; assay: SRB colorimetric cell growth inhibition assay, HeLa; format: cell-based; conditions: Homo sapiens, HeLa
How it was run: (§3)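 In this cytotoxicity screen, compound stays in contact with the cultured human cancer cells without washout; sulforhodamine B binding gives the measure of cell number, and endpoints separate growth inhibition from cytostasis (TGI) and killing (LC).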

[9] = test system: HeLa-APL; assay: SRB colorimetric cell growth inhibition assay, HeLa-APL (aplidine resistant); format: cell-based; conditions: Homo sapiens, HELA-APL
How it was run: as §3

[10] = SK-OV-3, SKOV-3, LC=cell killing (cytotoxic effect), read-out: LC50 SKOV-3

Compound `COc1cc(-c2c3n(c4c(=O)oc5cc(OC(=O)[C@H](NC(=O)OC(C)(C)C)C(C)C)c(OC)cc5c24)CCc2cc(OC(=O)[C@H](NC(=O)OC(C)(C)C)C(C)C)c(OC)cc2-3)ccc1OC(=O)[C@H](NC(=O)OC(C)(C)C)C(C)C` [Compound 34] has a GI50 [1] of 1270 nM, an LC50 (concentration causing 50% net cell killing) [1] of 6650 nM and an IC (TGI) [1] of 2910 nM. For the same compound, the GI50 [2] was 244 nM, the IC (TGI) [2] was 653 nM and the LC50 (concentration giving 50% net cell killing) [3] was 3440 nM.
With `COc1cc(-c2c3c4cc(OC)c(OC(=O)[C@@H](N)C(C)C)cc4oc(=O)c3n3ccc4cc(OC(=O)[C@@H](N)C(C)C)c(OC)cc4c23)ccc1OC(=O)[C@@H](N)C(C)C` [Compound 36] the GI50 [1] was 39.2 nM, the LC50 (concentration causing 50% net cell killing) [1] was 5890 nM and the IC (TGI) [1] was 297 nM. For the same compound, the GI50 [2] was 2.65 nM, the IC (TGI) [2] was 8.6 nM and the LC50 (concentration giving 50% net cell killing) ([3]; H-MEC-1 cells) was 1350 nM. For the same compound, the “stimulation of DNA cleavage by topoisomerase I (radiolabeled DNA substrate)” value [4] was “no difference between the (L) (36) and (D) (17) Val isomers” and the “topoisomerase I-mediated DNA cleavage sites / cleavage profile” value [4] was “Cleavage profiles identical to that of 3”.
`COc1cc(-c2c3c4cc(OC)c(OC(=O)[C@@H](NC(=O)OC(C)(C)C)C(C)C)cc4oc(=O)c3n3ccc4cc(OC(=O)[C@@H](NC(=O)OC(C)(C)C)C(C)C)c(OC)cc4c23)ccc1OC(=O)[C@@H](NC(=O)OC(C)(C)C)C(C)C` [Compound 38] showed a GI50 [1] of 684 nM, an IC (TGI) [1] of 7420 nM and a GI50 [2] of 80.9 nM. It also gave an IC (TGI) [2] of 911 nM, a CC50 [5] of 9110 nM and a CC50 ([6]; SK-OV-3, read-out: LC50 SKOV-3) of 9110 nM.
Compound `COc1cc(-c2c3c4cc(OC)c(OC(=O)[C@@H](N)CC(C)C)cc4oc(=O)c3n3ccc4cc(OC(=O)[C@@H](N)CC(C)C)c(OC)cc4c23)ccc1OC(=O)[C@@H](N)CC(C)C` [Compound 39] has a GI50 [7] of 6.98 nM, an IC (TGI) [7] of 8470 nM and a CC50 ([5]; H-MEC-1 cells) of 8470 nM. For the same compound, the GI50 [6] was 63.4 nM, the CC50 [6, 10] was 8470 nM and the IC (TGI) ([6]; SK-OV-3, SKOV-3) was 8470 nM. For the same compound, the “topoisomerase I-mediated DNA cleavage sites / cleavage profile” value [4] was “Cleavage profiles identical to that of 3”.
In the case of `COc1cc(-c2c3c4cc(OC)c(OC(=O)[C@H](C)N)cc4oc(=O)c3n3ccc4cc(OC(=O)[C@H](C)N)c(OC)cc4c23)ccc1OC(=O)[C@H](C)N` [Compound 40], the GI50 [6] is reported as 28.4 nM, the CC50 [6, 10] is reported as 9480 nM and the IC (TGI) ([6]; SK-OV-3, SKOV-3) is reported as 107 nM.
Compound `COc1cc(-c2c3n(c4c(=O)oc5cc(O)c(OC)cc5c24)CCc2cc(O)c(OC)cc2-3)ccc1O` [Compound 109] has a GI50 [7] of 917 nM, an IC (TGI) [7] of 19900 nM and a CC50 ([5]; H-MEC-1 cells) of 19900 nM. For the same compound, the GI50 [6] was 2490 nM, the CC50 [6, 10] was 19900 nM and the IC (TGI) ([6]; SK-OV-3, SKOV-3) was 11800 nM.
In the case of `COc1cc(-c2c3c4cc(OC)c(OC(=O)CCCCCN)cc4oc(=O)c3n3ccc4cc(OC(=O)CCCCCN)c(OC)cc4c23)ccc1OC(=O)CCCCCN` [Compound 169], the GI50 ([8]; GI=growth inhibition, read-out: GI50 HELA) is reported as 55.7 nM, the CC50 ([8]; cell killing (cytotoxic effect), read-out: LC50 HELA) is reported as 4420 nM and the IC (TGI) ([8]; total growth inhibition (cytostatic effect), read-out: TGI HELA) is reported as 1390 nM. For the same compound, the GI50 ([9]; GI=growth inhibition, read-out: GI50 HELA-APL) was 70.5 nM, the CC50 ([9]; cell killing (cytotoxic effect), read-out: LC50 HELA-APL) was 2970 nM and the IC (TGI) ([9]; total growth inhibition (cytostatic effect), read-out: TGI HELA-APL) was 530 nM. The “stimulation of DNA cleavage by topoisomerase I (radiolabeled DNA substrate)” value [4] was “stimulate DNA cleavage by the enzyme”.
